Reference: patent publication US10323038B2, “Pyrazole compounds and methods of making and using same” (ABIDE THERAPEUTICS, INC., priority 2015, dated 2019)

Assays:
Assay type in all cases: biochemical
FAAH [1] = molecular target: FAAH (Homo sapiens (Human), UniProt O00519); test: In vitro competitive activity-based protein profiling, FAAH (human); details: human proteome; for inhibition at 1 µM: read-out: FAAH % inh. 1 μM (human)
Description: (§1) In Vitro Competitive Activity-Based Protein Profiling.
(§2) Proteomes (mouse brain membrane fraction or cell lysates for mouse assays; human prefrontal cortex or cell membrane fractions for human assays) (50 μL, 1.0 mg/mL total protein concentration) were preincubated with varying concentrations of inhibitors at 37° C. After 30 min, FP—Rh or HT-01 (1.0 μL, 50 μM in DMSO) was added and the mixture was incubated for another 30 min at 37° C. Reactions were quenched with SDS loading buffer (15 μL-4×) and run on SDS-PAGE. Following gel imaging, serine hydrolase activity was determined by measuring fluorescent intensity of gel bands corresponding to MAGL and FAAH using ImageJ 1.43u software.

MAGL [2] = molecular target: MAGL (Homo sapiens (Human), UniProt Q99685); test: In vitro competitive activity-based protein profiling, MAGL (human); details: human proteome; for inhibition at 1 µM: read-out: MAGL % inh. 1 μM (human)
Description: as §1, §2

MAGL [3] = molecular target: MAGL (Mus musculus (Mouse), UniProt O35678); test: In vitro competitive activity-based protein profiling, MAGL (mouse); details: for inhibition at 1 µM: read-out: MAGL % inh. 1 μM (mouse)
Method in brief: (§3)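 Proteomes at 1.0 mg/mL protein (mouse brain membranes or cell lysates; human prefrontal cortex or cell membranes) preincubated with inhibitor 30 min at 37 °C. Then FP-Rh or HT-01 probe (50 μM stock) added for 30 min at 37 °C. MAGL and FAAH activity measured by SDS-PAGE band fluorescence.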

FAAH [4] = molecular target: FAAH (Mus musculus (Mouse), UniProt O08914); test: In vitro competitive activity-based protein profiling, FAAH (mouse); details: for inhibition at 1 µM: read-out: FAAH % inh. 1 μM (mouse)
Method in brief: as §3

Chain of MAGL (Mus musculus (Mouse), UniProt O35678) (O35678 whole entry): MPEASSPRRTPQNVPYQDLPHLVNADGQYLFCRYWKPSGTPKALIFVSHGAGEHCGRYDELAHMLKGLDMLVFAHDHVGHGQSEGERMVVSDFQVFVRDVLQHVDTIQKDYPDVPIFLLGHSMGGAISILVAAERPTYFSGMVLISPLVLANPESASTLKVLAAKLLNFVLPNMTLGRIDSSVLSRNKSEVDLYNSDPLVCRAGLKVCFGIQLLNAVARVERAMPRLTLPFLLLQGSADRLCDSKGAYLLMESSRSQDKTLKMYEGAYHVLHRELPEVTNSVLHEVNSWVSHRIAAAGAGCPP
Chain of FAAH (Mus musculus (Mouse), UniProt O08914) (O08914 whole entry): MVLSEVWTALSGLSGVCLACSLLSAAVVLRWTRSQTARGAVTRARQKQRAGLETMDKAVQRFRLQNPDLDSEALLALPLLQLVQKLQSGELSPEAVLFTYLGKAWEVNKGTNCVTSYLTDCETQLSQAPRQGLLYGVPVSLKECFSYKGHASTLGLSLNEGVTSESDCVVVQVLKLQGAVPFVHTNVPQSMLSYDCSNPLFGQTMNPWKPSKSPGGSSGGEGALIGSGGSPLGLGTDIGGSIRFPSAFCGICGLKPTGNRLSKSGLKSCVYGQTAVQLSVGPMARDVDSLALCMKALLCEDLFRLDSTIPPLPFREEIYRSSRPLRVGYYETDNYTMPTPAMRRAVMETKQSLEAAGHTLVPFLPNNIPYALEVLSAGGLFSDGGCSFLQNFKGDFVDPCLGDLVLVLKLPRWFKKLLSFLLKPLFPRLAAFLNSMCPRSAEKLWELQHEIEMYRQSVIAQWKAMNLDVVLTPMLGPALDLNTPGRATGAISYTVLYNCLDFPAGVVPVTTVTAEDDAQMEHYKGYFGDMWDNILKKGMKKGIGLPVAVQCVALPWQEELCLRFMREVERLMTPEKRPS
Chain of FAAH (Homo sapiens (Human), UniProt O00519) (O00519 whole entry): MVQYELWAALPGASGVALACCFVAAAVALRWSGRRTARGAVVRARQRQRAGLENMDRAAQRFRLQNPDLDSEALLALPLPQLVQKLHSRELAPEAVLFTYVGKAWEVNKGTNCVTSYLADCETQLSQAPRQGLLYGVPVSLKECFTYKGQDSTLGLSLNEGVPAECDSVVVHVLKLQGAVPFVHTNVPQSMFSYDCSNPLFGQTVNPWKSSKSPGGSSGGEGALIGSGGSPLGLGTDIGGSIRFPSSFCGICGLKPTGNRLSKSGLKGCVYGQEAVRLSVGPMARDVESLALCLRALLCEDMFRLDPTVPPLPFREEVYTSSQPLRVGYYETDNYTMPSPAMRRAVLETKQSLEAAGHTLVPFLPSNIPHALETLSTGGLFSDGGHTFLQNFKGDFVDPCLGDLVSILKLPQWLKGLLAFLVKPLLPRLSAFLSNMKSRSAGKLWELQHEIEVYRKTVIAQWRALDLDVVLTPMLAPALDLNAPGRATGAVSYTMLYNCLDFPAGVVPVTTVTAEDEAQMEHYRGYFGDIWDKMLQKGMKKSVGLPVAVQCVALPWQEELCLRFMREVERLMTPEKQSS
Chain of MAGL (Homo sapiens (Human), UniProt Q99685) (Q99685 whole entry): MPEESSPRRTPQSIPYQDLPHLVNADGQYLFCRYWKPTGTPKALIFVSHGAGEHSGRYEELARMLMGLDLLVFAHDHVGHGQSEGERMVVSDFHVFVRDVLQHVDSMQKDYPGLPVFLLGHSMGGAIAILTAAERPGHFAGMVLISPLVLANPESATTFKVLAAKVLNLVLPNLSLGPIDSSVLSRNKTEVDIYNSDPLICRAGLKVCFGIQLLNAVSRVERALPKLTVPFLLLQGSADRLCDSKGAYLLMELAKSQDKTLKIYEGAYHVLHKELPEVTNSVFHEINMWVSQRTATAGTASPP

Compound	inhibition at 1 µM (FAAH [1])	inhibition at 1 µM (MAGL [2])	inhibition at 1 µM (MAGL [3]; 1 μM)	inhibition at 1 µM (FAAH [4]; 1 μM)	other results
CS(=O)(=O)Nc1cnn(C(=O)N2CCC3(CCN(Cc4ccc(Cl)c(Cl)c4)C3)C2)c1 (stereo not shown) [Example 283, N-(1-(7-(3,4-dichlorobenzyl)-2,7-diazaspiro[4.4]nonane-2-carbonyl)-1H-pyrazol-4-yl)methanesulfonamide]	≥ 75%	≥ 75%	–	–	–
CS(=O)(=O)Nc1cnn(C(=O)N2CCC3(CCN(Cc4ccc(N5CCCC5)cc4C(F)(F)F)C3)C2)c1 (stereo not shown) [Example 285, N-(1-(7-(4-(pyrrolidin-1-yl)-2-(trifluoromethyl)benzyl)-2,7-diazaspiro[4.4]nonane-2-carbonyl)-1H-pyrazol-4-yl)methanesulfonamide]	≥ 75%	≥ 75%	–	–	–
CS(=O)(=O)Nc1cnn(C(=O)N2CCC3(CCN(Cc4cc(Cl)cc(C(F)(F)F)c4)C3)C2)c1 (stereo not shown) [Example 286, N-(1-(7-(3-chloro-5-(trifluoromethyl)benzyl)-2,7-diazaspiro[4.4]nonane-2-carbonyl)-1H-pyrazol-4-yl)methanesulfonamide]	–	–	25 to 50%	≥ 75%	–
CS(=O)(=O)Nc1cnn(C(=O)N2CCC3(CCN(Cc4ccc(-c5nccs5)cc4Cl)C3)C2)c1 (stereo not shown) [Example 287, N-(1-(7-(2-chloro-4-(thiazol-2-yl)benzyl)-2,7-diazaspiro[4.4]nonane-2-carbonyl)-1H-pyrazol-4-yl)methanesulfonamide]	–	–	50 to 75%	≥ 75%	–
CS(=O)(=O)Nc1cnn(C(=O)N2CCC3(CCN(Cc4cccc(Cl)c4Cl)C3)C2)c1 (stereo not shown) [Example 288, N-(1-(7-(2,3-dichlorobenzyl)-2,7-diazaspiro[4.4]nonane-2-carbonyl)-1H-pyrazol-4-yl)methanesulfonamide]	≥ 75%	≥ 75%	–	–	–
CS(=O)(=O)Nc1cnn(C(=O)N2CCN(Cc3ccc(-c4cnccn4)cc3C(F)(F)F)CC2)c1 [Example 289, N-(1-(4-(4-(pyrazin-2-yl)-2-(trifluoromethyl)benzyl)piperazine-1-carbonyl)-1H-pyrazol-4-yl)methanesulfonamide]	–	–	25 to 50%	≥ 75%	–
CS(=O)(=O)Nc1cnn(C(=O)N2CCN(Cc3ccc(-c4cncnc4)cc3C(F)(F)F)CC2)c1 [Example 290, N-(1-(4-(4-(pyrimidin-5-yl)-2-(trifluoromethyl)benzy1)piperazine-1-carbonyl)-1H-pyrazol-4-yl)methanesulfonamide]	≥ 75%	≥ 75%	–	–	–
CS(=O)(=O)Nc1cnn(C(=O)N2CCN(Cc3ccc(-c4nccs4)cc3C(F)(F)F)CC2)c1 [Example 291, N-(1-(4-(4-(thiazol-2-yl)-2-(trifluoromethyl)benzyl)piperazine-1-carbonyl)-1H-pyrazol-4-yl)methanesulfonamide]	–	–	50 to 75%	≥ 75%	–
CS(=O)(=O)Nc1cnn(C(=O)N2CCN(Cc3cc(Cl)ccc3C(F)(F)F)CC2)c1 [Example 293, N-(1-(4-(5-chloro-2-(trifluoromethyl)benzyl)piperazine-1-carbonyl)-1H-pyrazol-4-yl)methanesulfonamide]	–	–	50 to 75%	≥ 75%	IC50 (MAGL [3]): ≤ 0.1 µM; IC50 (FAAH [4]): 1 to 10 µM
CS(=O)(=O)Nc1cnn(C(=O)N2CCN(Cc3cc(Cl)cc(C(F)(F)F)c3)CC2)c1 [Example 294, N-(1-(4-(3-chloro-5-(trifluoromethyl)benzyl)piperazine-1-carbonyl)-1H-pyrazol-4-yl)methanesulfonamide]	–	–	≥ 75%	≥ 75%	–
CS(=O)(=O)Nc1cnn(C(=O)N2CCN(Cc3cc(N4CCCC4)cc(C(F)(F)F)c3)CC2)c1 [Example 295, N-(1-(4-(3-(pyrrolidin-1-yl)-5-(trifluoromethyl)benzyl)piperazine-1-carbonyl)-1H-pyrazol-4-yl)methanesulfonamide]	–	–	≥ 75%	≥ 75%	–
CS(=O)(=O)Nc1cnn(C(=O)N2CCN(Cc3cccc(Oc4ccc(Cl)cc4)c3)CC2)c1 [Example 296, N-(1-(4-(3-(4-chlorophenoxy)benzyl)piperazine-1-carbonyl)-1H-pyrazol-4-yl)methanesulfonamide]	–	–	≥ 75%	≥ 75%	–
CS(=O)(=O)Nc1cnn(C(=O)N2CCC3(CCN(Cc4ccc(N5CCCC5)c(Cl)c4)C3)CC2)c1 [Example 298, N-(1-(2-(3-chloro-4-(pyrrolidin-1-yl)benzyl)-2,8-diazaspiro[4.5]|decane-8-carbonyl)-1H-pyrazol-4-yl)methanesulfonamide]	≥ 75%	≥ 75%	–	–	–
CN(Cc1ccccc1C(F)(F)F)[C@H]1C[C@@H]2CN(C(=O)n3cc(NS(C)(=O)=O)cn3)C[C@@H]2C1 [Example 299, N-(1-(trans-5-(methyl(2-(trifluoromethyl)benzyl)amino)octahydrocyclopenta[c]pyrrole-2-carbonyl)-1H-pyrazol-4-yl)methanesulfonamide]	–	–	≥ 75%	≥ 75%	–
CN(Cc1ccccc1C(F)(F)F)[C@@H]1C[C@@H]2CN(C(=O)n3cc(NS(C)(=O)=O)cn3)C[C@@H]2C1 [Example 300, N-(1-(cis-5-(methyl(2-(trifluoromethyl)benzyl)amino)octahydrocyclopenta[c]pyrrole-2-carbonyl)-1H-pyrazol-4-yl)methanesulfonamide]	≥ 75%	≥ 75%	–	–	–
CS(=O)(=O)Nc1cnn(C(=O)N2CCN(Cc3ccc(-c4ccc(C(F)(F)F)nc4)cc3C(F)(F)F)CC2)c1 [Example 301, N-(1-(4-(2-(trifluoromethyl)-4-(6-(trifluoromethyl)pyridin-3-yl)benzyl)piperazine-1-carbonyl)-1H-pyrazol-4-yl)methanesulfonamide]	–	–	–	–	inhibition at 10 µM (FAAH [1]; 10 μM, read-out: FAAH % inh. 10 μM (human)): ≥ 75%; inhibition at 10 µM (MAGL [2]; 10 μM, read-out: MAGL % inh. 10 μM (human)): ≥ 75%
CS(=O)(=O)Nc1cnn(C(=O)N2CCN(Cc3ccc(-c4ccc(C(N)=O)nc4)cc3C(F)(F)F)CC2)c1 [Example 302]	–	–	25 to 50%	≥ 75%	–
CS(=O)(=O)Nc1cnn(C(=O)N2CCN(Cc3ccc(-c4ncco4)cc3C(F)(F)F)CC2)c1 [Example 303, N-(1-(4-(4-(oxazol-2-yl)-2-(trifluoromethyl)benzy)piperazine-1-carbonyl)-1H-pyrazol-4-yl)methanesulfonamide]	–	–	50 to 75%	≥ 75%	IC50 (MAGL [3]): ≤ 0.1 µM; IC50 (FAAH [4]): 1 to 10 µM
CS(=O)(=O)Nc1cnn(C(=O)N2CCN(Cc3ccc(-c4nc5ccccc5o4)cc3C(F)(F)F)CC2)c1 [Example 304, N-(1-(4-(4-(benzo[d]oxazol-2-yl)-2-(trifluoromethyl)benzyl)piperazine-1-carbonyl)-1H-pyrazol-4-yl)methanesulfonamide]	≥ 75%	25 to 50%	–	–	–
CS(=O)(=O)Nc1cnn(C(=O)N2CCN(Cc3ccc(-c4nc5ccccc5s4)cc3C(F)(F)F)CC2)c1 [Example 305, N-(1-(4-(4-(benzo[d]thiazol-2-yl)-2-(trifluoromethyl)benzyl)piperazine-1-carbonyl)-1H-pyrazol-4-yl)methanesulfonamide]	≥ 75%	≥ 75%	–	–	–
Cc1noc(-c2ccc(CN3CCN(C(=O)n4cc(NS(C)(=O)=O)cn4)CC3)c(C(F)(F)F)c2)n1 [Example 307, N-(1-(4-(4-(3-methyl-1,2,4-oxadiazol-5-yl)-2-(trifluoromethyl)benzyl)piperazine-1-carbonyl)-1H-pyrazol-4-yl)methanesulfonamide]	–	–	25 to 50%	≥ 75%	–
CS(=O)(=O)Nc1cnn(C(=O)N2CCN(Cc3ccc(-c4ccncn4)cc3C(F)(F)F)CC2)c1 [Example 309, N-(1-(4-(4-(pyrimidin-4-yl)-2-(trifluoromethyl)benzyl)piperazine-1-carbonyl)-1H-pyrazol-4-yl)methanesulfonamide]	–	–	25 to 50%	≥ 75%	–
CC(=O)Nc1cnn(C(=O)N2CCN(Cc3cc(Cl)ccc3C(F)(F)F)CC2)c1 [Example 314, N-(1-(4-(5-chloro-2-(trifluoromethyl)benzyl)piperazine-1-carbonyl)-1H-pyrazol-4-yl)acetamide]	–	–	≥ 75%	≥ 75%	–
CC(=O)Nc1cnn(C(=O)N2CC3CN(Cc4cc(Cl)cc(C(F)(F)F)c4)CC3C2)c1 (stereo not shown) [Example 315, N-(1-(5-(3-chloro-5-(trifluoromethyl)benzyl)octahydropyrrolo [3,4-c]pyrrole-2-carbonyl)-1H-pyrazol-4-yl)acetamide]	–	–	≥ 75%	≥ 75%	–
C#Cc1ccc(CN2CCN(C(=O)n3cc(N(C)C(C)=O)cn3)CC2)cc1 [Example 317, N-(1-(4-(4-ethynylbenzyl)piperazine-1-carbonyl)-1H-pyrazol-4-yl)-N-methylacetamide]	–	–	≥ 75%	≥ 75%	–
N-(1-(5-(3-(4- methoxyphenoxy)benzyl) octahydropyrrolo[3,4-c]pyrrole-2- carbonyl)-1H-pyrazol-4-yl)-N- methylacetamide [Example 243]	–	–	–	–	IC50 (MAGL [3]): ≤ 0.1 µM; MAGL % inh. 1 μM (mouse) (MAGL [3]; 1 μM): A (A = % inhibition greater than or equal to 75%); IC50 (FAAH [4]): ≤ 0.1 µM; FAAH % inh. 1 μM (mouse) (FAAH [4]; 1 μM): A (A = % inhibition greater than or equal to 75%)
